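1) Cells in 96-well plates. 2) Compound, 48 h, 5 concentrations. 3) Linear interpolation between surrounding doses. 4) Unreached endpoint = highest concentration. At the GI50, growth is halved. At the TGI there is no net growth.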
Key:
Assay in all cases: NCI-60 cell line screen, 48 h
786-0 renal = tested on: 786-0 renal
A498 renal = tested on: A498 renal
A549 NSCLC = tested on: A549 NSCLC
ACHN renal = tested on: ACHN renal
BT-549 breast = tested on: BT-549 breast
CAKI-1 renal = tested on: CAKI-1 renal
CCRF-CEM leukemia = tested on: CCRF-CEM leukemia
COLO 205 colon = tested on: COLO 205 colon
DU-145 prostate = tested on: DU-145 prostate
EKVX NSCLC = tested on: EKVX NSCLC
HCC-2998 colon = tested on: HCC-2998 colon
HCT-116 colon = tested on: HCT-116 colon
HCT-15 colon = tested on: HCT-15 colon
HL-60(TB) leukemia = tested on: HL-60(TB) leukemia
HOP-62 NSCLC = tested on: HOP-62 NSCLC
HOP-92 NSCLC = tested on: HOP-92 NSCLC
HS 578T breast = tested on: HS 578T breast
HT29 colon = tested on: HT29 colon
IGROV1 ovarian = tested on: IGROV1 ovarian
K-562 leukemia = tested on: K-562 leukemia
KM12 colon = tested on: KM12 colon
LOX IMVI melanoma = tested on: LOX IMVI melanoma
M14 melanoma = tested on: M14 melanoma
MALME-3M melanoma = tested on: MALME-3M melanoma
MCF7 breast = tested on: MCF7 breast
MDA-MB-231 breast = tested on: MDA-MB-231 breast
MDA-MB-435 = tested on: MDA-MB-435
MOLT-4 leukemia = tested on: MOLT-4 leukemia
NCI-H226 lung = tested on: NCI-H226 lung
NCI-H23 lung = tested on: NCI-H23 lung
NCI-H460 lung = tested on: NCI-H460 lung
NCI-H522 lung = tested on: NCI-H522 lung
NCI/ADR-RES ovarian = tested on: NCI/ADR-RES ovarian
OVCAR-3 ovarian = tested on: OVCAR-3 ovarian
OVCAR-4 ovarian = tested on: OVCAR-4 ovarian
OVCAR-5 ovarian = tested on: OVCAR-5 ovarian
OVCAR-8 ovarian = tested on: OVCAR-8 ovarian
PC-3 prostate = tested on: PC-3 prostate
RPMI-8226 leukemia = tested on: RPMI-8226 leukemia
RXF 393 renal = tested on: RXF 393 renal
SF-268 CNS = tested on: SF-268 CNS
SF-295 CNS = tested on: SF-295 CNS
SF-539 CNS = tested on: SF-539 CNS
SK-MEL-2 melanoma = tested on: SK-MEL-2 melanoma
SK-MEL-28 melanoma = tested on: SK-MEL-28 melanoma
SK-MEL-5 melanoma = tested on: SK-MEL-5 melanoma
SK-OV-3 ovarian = tested on: SK-OV-3 ovarian
SN12C renal = tested on: SN12C renal
SNB-19 CNS = tested on: SNB-19 CNS
SNB-75 CNS = tested on: SNB-75 CNS
SR leukemia = tested on: SR leukemia
SW-620 colon = tested on: SW-620 colon
T-47D breast = tested on: T-47D breast
TK-10 renal = tested on: TK-10 renal
U251 CNS = tested on: U251 CNS
UACC-257 melanoma = tested on: UACC-257 melanoma
UACC-62 melanoma = tested on: UACC-62 melanoma
UO-31 renal = tested on: UO-31 renal
MDA-N = tested on: MDA-N

SMILES: COC1CCC(OC)C(c2nc3sccn3c2/C=N/N=C(N)N)C1 (centres undefined)
- GI50 (786-0 renal): 19.7 µM
- TGI (786-0 renal): 47 µM
- GI50 (A498 renal): 10.9 µM
- TGI (A498 renal): 41.5 µM
- GI50 (A549 NSCLC): 47 µM
- TGI (A549 NSCLC): > 100 µM
- GI50 (ACHN renal): > 100 µM
- TGI (ACHN renal): > 100 µM
- GI50 (BT-549 breast): 18.4 µM
- TGI (BT-549 breast): 42.4 µM
- GI50 (CAKI-1 renal): > 10.5 µM
- TGI (CAKI-1 renal): > 82.5 µM
- GI50 (CCRF-CEM leukemia): 24.8 µM
- TGI (CCRF-CEM leukemia): > 64.7 µM
- GI50 (COLO 205 colon): 25.3 µM
- TGI (COLO 205 colon): > 63.7 µM
- GI50 (DU-145 prostate): 45.1 µM
- TGI (DU-145 prostate): > 80.2 µM
- GI50 (EKVX NSCLC): 34.8 µM
- TGI (EKVX NSCLC): > 92.7 µM
- GI50 (HCC-2998 colon): 31.1 µM
- TGI (HCC-2998 colon): 54.5 µM
- GI50 (HCT-116 colon): 4.9 µM
- TGI (HCT-116 colon): 37.7 µM
- GI50 (HCT-15 colon): > 100 µM
- TGI (HCT-15 colon): > 100 µM
- GI50 (HL-60(TB) leukemia): 1.21 µM
- TGI (HL-60(TB) leukemia): > 36.7 µM
- GI50 (HOP-62 NSCLC): 17.2 µM
- TGI (HOP-62 NSCLC): 42.7 µM
- GI50 (HOP-92 NSCLC): 2.76 µM
- TGI (HOP-92 NSCLC): 30.5 µM
- GI50 (HS 578T breast): 24.6 µM
- TGI (HS 578T breast): 68.6 µM
- GI50 (HT29 colon): 2.59 µM
- TGI (HT29 colon): > 8.71 µM
- GI50 (IGROV1 ovarian): 50 µM
- TGI (IGROV1 ovarian): > 100 µM
- GI50 (K-562 leukemia): 35.4 µM
- TGI (K-562 leukemia): > 63.3 µM
- GI50 (KM12 colon): 16 µM
- TGI (KM12 colon): 40.2 µM
- GI50 (LOX IMVI melanoma): 28.5 µM
- TGI (LOX IMVI melanoma): 67.4 µM
- GI50 (M14 melanoma): 1.96 µM
- TGI (M14 melanoma): 35.4 µM
- GI50 (MALME-3M melanoma): 1.7 µM
- TGI (MALME-3M melanoma): 23.8 µM
- GI50 (MCF7 breast): 20.1 µM
- TGI (MCF7 breast): 45 µM
- GI50 (MDA-MB-231 breast): 1.68 µM
- TGI (MDA-MB-231 breast): 32.8 µM
- GI50 (MDA-MB-435): 17.2 µM
- TGI (MDA-MB-435): 36 µM
- GI50 (MOLT-4 leukemia): > 74.6 µM
- TGI (MOLT-4 leukemia): > 100 µM
- GI50 (NCI-H226 lung): 13.6 µM
- TGI (NCI-H226 lung): 47.5 µM
- GI50 (NCI-H23 lung): 3.69 µM
- TGI (NCI-H23 lung): > 35.5 µM
- GI50 (NCI-H460 lung): 27.7 µM
- TGI (NCI-H460 lung): > 76.5 µM
- GI50 (NCI-H522 lung): 30.4 µM
- TGI (NCI-H522 lung): > 72.2 µM
- GI50 (NCI/ADR-RES ovarian): > 100 µM
- TGI (NCI/ADR-RES ovarian): > 100 µM
- GI50 (OVCAR-3 ovarian): 7.76 µM
- TGI (OVCAR-3 ovarian): 36.3 µM
- GI50 (OVCAR-4 ovarian): 43.5 µM
- TGI (OVCAR-4 ovarian): > 100 µM
- GI50 (OVCAR-5 ovarian): 2.84 µM
- TGI (OVCAR-5 ovarian): > 51.7 µM
- GI50 (OVCAR-8 ovarian): 22.1 µM
- TGI (OVCAR-8 ovarian): 55.6 µM
- GI50 (PC-3 prostate): 25 µM
- TGI (PC-3 prostate): > 65.4 µM
- GI50 (RPMI-8226 leukemia): 4.18 µM
- TGI (RPMI-8226 leukemia): 43.9 µM
- GI50 (RXF 393 renal): 24.8 µM
- TGI (RXF 393 renal): > 82.9 µM
- GI50 (SF-268 CNS): 18.5 µM
- TGI (SF-268 CNS): 45.8 µM
- GI50 (SF-295 CNS): 16.5 µM
- TGI (SF-295 CNS): 34.1 µM
- GI50 (SF-539 CNS): 20.4 µM
- TGI (SF-539 CNS): 44 µM
- GI50 (SK-MEL-2 melanoma): 25.7 µM
- TGI (SK-MEL-2 melanoma): > 62.4 µM
- GI50 (SK-MEL-28 melanoma): 34.9 µM
- TGI (SK-MEL-28 melanoma): > 94.4 µM
- GI50 (SK-MEL-5 melanoma): 20.2 µM
- TGI (SK-MEL-5 melanoma): 54.3 µM
- GI50 (SK-OV-3 ovarian): 47.1 µM
- TGI (SK-OV-3 ovarian): > 100 µM
- GI50 (SN12C renal): 22.4 µM
- TGI (SN12C renal): 56.3 µM
- GI50 (SNB-19 CNS): 33.8 µM
- TGI (SNB-19 CNS): > 96.4 µM
- GI50 (SNB-75 CNS): 6.44 µM
- TGI (SNB-75 CNS): > 77.2 µM
- GI50 (SR leukemia): 0.0201 µM
- TGI (SR leukemia): 15 µM
- GI50 (SW-620 colon): 19.4 µM
- TGI (SW-620 colon): 53.1 µM
- GI50 (T-47D breast): 31.9 µM
- TGI (T-47D breast): > 65.4 µM
- GI50 (TK-10 renal): > 52.1 µM
- TGI (TK-10 renal): > 81.4 µM
- GI50 (U251 CNS): 38.7 µM
- TGI (U251 CNS): 73.4 µM
- GI50 (UACC-257 melanoma): 5.61 µM
- TGI (UACC-257 melanoma): 44.1 µM
- GI50 (UACC-62 melanoma): 16.6 µM
- TGI (UACC-62 melanoma): 32.4 µM
- GI50 (UO-31 renal): > 67.5 µM
- TGI (UO-31 renal): > 100 µM

SMILES: C=CCCCN(C(=O)c1ccccc1)c1ccc(C(=O)OC)o1
- TGI (786-0 renal): > 100 µM
- TGI (A498 renal): > 100 µM
- TGI (A549 NSCLC): > 100 µM
- TGI (ACHN renal): > 100 µM
- TGI (CAKI-1 renal): > 100 µM
- TGI (COLO 205 colon): > 100 µM
- TGI (DU-145 prostate): > 100 µM
- TGI (EKVX NSCLC): > 100 µM
- TGI (HCT-116 colon): > 100 µM
- TGI (HCT-15 colon): > 100 µM
- TGI (HL-60(TB) leukemia): > 100 µM
- TGI (HOP-62 NSCLC): > 100 µM
- TGI (HOP-92 NSCLC): > 100 µM
- TGI (HS 578T breast): > 100 µM
- TGI (HT29 colon): > 100 µM
- TGI (IGROV1 ovarian): > 100 µM
- TGI (KM12 colon): > 100 µM
- TGI (LOX IMVI melanoma): > 100 µM
- TGI (M14 melanoma): > 100 µM
- TGI (MALME-3M melanoma): > 100 µM
- TGI (MCF7 breast): > 100 µM
- TGI (MDA-MB-231 breast): > 100 µM
- TGI (MDA-N): > 100 µM
- TGI (MOLT-4 leukemia): > 100 µM
- TGI (NCI-H226 lung): > 100 µM
- TGI (NCI-H23 lung): > 100 µM
- TGI (NCI-H460 lung): > 100 µM
- TGI (NCI-H522 lung): > 100 µM
- TGI (NCI/ADR-RES ovarian): > 100 µM
- TGI (OVCAR-4 ovarian): > 100 µM
- TGI (OVCAR-5 ovarian): > 100 µM
- TGI (OVCAR-8 ovarian): > 100 µM
- TGI (PC-3 prostate): > 100 µM
- TGI (RXF 393 renal): > 100 µM
- TGI (SF-268 CNS): > 100 µM
- TGI (SF-295 CNS): > 100 µM
- TGI (SF-539 CNS): > 100 µM
- TGI (SK-MEL-2 melanoma): > 100 µM
- TGI (SK-MEL-5 melanoma): > 100 µM
- TGI (SK-OV-3 ovarian): > 100 µM
- TGI (SN12C renal): > 100 µM
- TGI (SNB-19 CNS): > 100 µM
- TGI (SNB-75 CNS): > 100 µM
- TGI (T-47D breast): > 100 µM
- TGI (TK-10 renal): > 100 µM
- TGI (UACC-257 melanoma): > 100 µM
- TGI (UACC-62 melanoma): > 100 µM
- TGI (UO-31 renal): > 100 µM

From PubChem BioAssay (NCI)
